Experiments:
Neutrophil collagenase = Neutrophil collagenase (Homo sapiens, UniProt P22894); test: Inhibition of human matrix metalloprotease-8
[1] = molecular target: 72 kDa type IV collagenase (Homo sapiens, UniProt P08253); test: Inhibition of human matrix metalloprotease-2
[2] = molecular target: Matrix metalloproteinase-9 (Homo sapiens, UniProt P14780); test: Inhibition of human matrix metalloprotease-9
Matrilysin = molecular target: T1, Matrilysin (Homo sapiens, UniProt P09237); test: Inhibition of human matrix metalloprotease-7
T1 sequence (P09237 whole entry): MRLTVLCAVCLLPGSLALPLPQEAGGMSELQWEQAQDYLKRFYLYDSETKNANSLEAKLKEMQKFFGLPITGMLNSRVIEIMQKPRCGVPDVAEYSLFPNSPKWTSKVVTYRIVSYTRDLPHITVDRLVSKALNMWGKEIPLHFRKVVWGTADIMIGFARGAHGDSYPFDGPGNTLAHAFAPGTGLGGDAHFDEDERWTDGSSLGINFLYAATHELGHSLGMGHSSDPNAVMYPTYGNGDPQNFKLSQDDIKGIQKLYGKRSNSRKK

Stromelysin-1 = Stromelysin-1 (Homo sapiens, UniProt P08254); test: Inhibition of human matrix metalloprotease-3
Sequence of Stromelysin-1 (P08254 whole entry): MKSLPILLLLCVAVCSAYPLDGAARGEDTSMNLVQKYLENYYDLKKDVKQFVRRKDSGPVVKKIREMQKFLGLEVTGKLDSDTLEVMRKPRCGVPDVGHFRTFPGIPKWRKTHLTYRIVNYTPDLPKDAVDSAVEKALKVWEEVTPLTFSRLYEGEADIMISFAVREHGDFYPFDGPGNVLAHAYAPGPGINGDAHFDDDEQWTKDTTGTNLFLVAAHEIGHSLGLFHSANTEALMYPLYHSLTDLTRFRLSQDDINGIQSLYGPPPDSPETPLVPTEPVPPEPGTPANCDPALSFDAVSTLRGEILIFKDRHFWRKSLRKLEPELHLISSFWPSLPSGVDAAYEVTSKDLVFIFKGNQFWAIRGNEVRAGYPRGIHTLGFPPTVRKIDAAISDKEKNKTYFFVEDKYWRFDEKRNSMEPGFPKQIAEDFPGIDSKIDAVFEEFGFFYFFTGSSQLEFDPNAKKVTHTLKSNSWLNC

[3] = molecular target: Matrix metalloproteinase-14 (Homo sapiens, UniProt P50281); test: Inhibition of human matrix metalloprotease-14
Interstitial collagenase = molecular target: T2, Interstitial collagenase (Homo sapiens, UniProt P03956); test: Inhibition of human matrix metalloprotease-1
T2 sequence (P03956 whole entry): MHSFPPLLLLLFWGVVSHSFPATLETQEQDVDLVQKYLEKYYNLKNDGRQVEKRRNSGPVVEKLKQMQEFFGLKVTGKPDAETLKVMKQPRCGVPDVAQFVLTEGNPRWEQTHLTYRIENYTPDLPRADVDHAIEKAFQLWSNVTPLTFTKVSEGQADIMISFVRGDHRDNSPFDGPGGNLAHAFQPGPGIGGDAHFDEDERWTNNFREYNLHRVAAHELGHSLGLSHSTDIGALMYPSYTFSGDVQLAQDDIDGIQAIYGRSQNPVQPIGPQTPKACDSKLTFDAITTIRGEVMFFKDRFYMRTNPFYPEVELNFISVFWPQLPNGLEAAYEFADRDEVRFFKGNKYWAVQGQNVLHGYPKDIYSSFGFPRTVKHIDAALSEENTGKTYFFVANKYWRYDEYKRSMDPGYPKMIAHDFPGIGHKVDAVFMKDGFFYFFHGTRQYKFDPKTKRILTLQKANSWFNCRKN

Sequence of Matrix metalloproteinase-9 (P14780 whole entry): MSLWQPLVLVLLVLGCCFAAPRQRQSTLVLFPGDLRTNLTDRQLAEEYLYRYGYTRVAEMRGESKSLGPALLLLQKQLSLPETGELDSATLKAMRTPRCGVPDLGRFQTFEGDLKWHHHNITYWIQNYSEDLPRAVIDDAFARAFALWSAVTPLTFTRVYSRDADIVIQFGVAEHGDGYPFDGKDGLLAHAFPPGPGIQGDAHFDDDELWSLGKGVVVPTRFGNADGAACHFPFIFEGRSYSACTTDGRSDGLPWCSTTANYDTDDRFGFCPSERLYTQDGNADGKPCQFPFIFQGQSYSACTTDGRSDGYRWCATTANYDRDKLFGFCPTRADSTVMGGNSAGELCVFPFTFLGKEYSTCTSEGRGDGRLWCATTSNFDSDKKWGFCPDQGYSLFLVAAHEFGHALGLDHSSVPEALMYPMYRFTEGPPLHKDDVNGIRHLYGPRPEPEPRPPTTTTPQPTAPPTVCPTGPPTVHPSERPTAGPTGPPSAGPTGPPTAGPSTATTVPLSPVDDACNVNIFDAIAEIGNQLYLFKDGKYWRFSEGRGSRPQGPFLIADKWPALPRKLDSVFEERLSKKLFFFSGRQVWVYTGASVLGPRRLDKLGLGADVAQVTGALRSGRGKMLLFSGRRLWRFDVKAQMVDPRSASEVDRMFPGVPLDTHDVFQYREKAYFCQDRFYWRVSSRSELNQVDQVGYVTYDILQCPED
Sequence of 72 kDa type IV collagenase (P08253 whole entry): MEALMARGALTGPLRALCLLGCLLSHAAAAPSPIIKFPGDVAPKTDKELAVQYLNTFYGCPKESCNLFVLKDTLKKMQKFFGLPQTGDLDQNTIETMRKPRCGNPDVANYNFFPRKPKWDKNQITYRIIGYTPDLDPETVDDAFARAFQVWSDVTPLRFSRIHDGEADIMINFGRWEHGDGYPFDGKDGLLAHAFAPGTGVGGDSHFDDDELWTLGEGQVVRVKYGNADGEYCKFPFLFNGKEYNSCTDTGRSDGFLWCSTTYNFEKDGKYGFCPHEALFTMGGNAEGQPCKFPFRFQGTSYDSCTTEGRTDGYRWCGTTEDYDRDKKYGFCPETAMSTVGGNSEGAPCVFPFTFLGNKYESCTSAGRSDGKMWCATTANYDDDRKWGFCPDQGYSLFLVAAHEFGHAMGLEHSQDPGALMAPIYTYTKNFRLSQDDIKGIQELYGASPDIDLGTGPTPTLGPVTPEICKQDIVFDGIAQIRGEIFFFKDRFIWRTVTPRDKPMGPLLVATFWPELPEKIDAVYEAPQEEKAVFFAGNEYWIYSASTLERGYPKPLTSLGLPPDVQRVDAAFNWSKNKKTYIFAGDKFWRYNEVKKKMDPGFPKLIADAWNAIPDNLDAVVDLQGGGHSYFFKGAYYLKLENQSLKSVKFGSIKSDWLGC
Sequence of Neutrophil collagenase (P22894 whole entry): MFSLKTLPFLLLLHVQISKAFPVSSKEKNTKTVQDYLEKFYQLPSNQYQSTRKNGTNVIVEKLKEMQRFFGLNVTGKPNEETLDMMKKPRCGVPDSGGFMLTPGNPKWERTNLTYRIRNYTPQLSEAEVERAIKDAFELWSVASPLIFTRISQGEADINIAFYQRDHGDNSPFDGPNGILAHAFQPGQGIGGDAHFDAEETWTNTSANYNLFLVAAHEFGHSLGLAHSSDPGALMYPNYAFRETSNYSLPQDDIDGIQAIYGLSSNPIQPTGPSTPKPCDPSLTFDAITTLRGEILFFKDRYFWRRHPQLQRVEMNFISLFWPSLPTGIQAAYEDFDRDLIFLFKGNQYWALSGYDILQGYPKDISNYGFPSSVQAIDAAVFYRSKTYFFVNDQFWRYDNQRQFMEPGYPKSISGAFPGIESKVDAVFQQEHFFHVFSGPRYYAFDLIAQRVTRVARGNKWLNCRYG

SMILES | IC50 (Neutrophil collagenase) [nM] | IC50 [1] [nM] | IC50 [2] [nM] | IC50 (Matrilysin) [nM] | IC50 (Stromelysin-1) [nM] | IC50 [3] [nM] | IC50 (Interstitial collagenase) [nM]
CC(C)ON(CC(=O)NO)S(=O)(=O)c1ccc(-c2ccccc2)cc1 | – | 12 | 200 | > 50000 | 4500 | > 10000 | > 50000
CC(C)ON([C@H](CCN)C(=O)NO)S(=O)(=O)c1ccc(-c2ccccc2)cc1 | – | 935 | 4520 | – | – | > 300 | –
CC(C)ON(C(C(=O)NO)C(C)C)S(=O)(=O)c1ccc(-c2ccccc2)cc1 (racemic) | – | 1.8 | 19.6 | – | – | – | –
COc1ccc(S(=O)(=O)N(Cc2cccnc2)[C@@H](C(=O)NO)C(C)C)cc1 [CGS-27023A] | – | – | – | 100 | – | 8.9 | –

More lines, main results first:

IC50 (Neutrophil collagenase) [nM] | IC50 [1] [nM] | IC50 [2] [nM] | IC50 (Matrilysin) [nM] | IC50 (Stromelysin-1) [nM] | IC50 [3] [nM] | SMILES | IC50 (Interstitial collagenase) [nM]
1.6 | 0.09 | 6.7 | > 11100 | 50 | 9.8 | CC(C)ON([C@@H](C(=O)NO)C(C)C)S(=O)(=O)c1ccc(-c2ccccc2)cc1 | –
– | 0.41 | 16 | > 24400 | 130 | 7.7 | CC(C)ON([C@H](CCNC(=O)OCc1ccccc1)C(=O)NO)S(=O)(=O)c1ccc(-c2ccccc2)cc1 | > 3000
– | 10.3 | 13 | – | – | – | CC(C)ON([C@H](C(=O)NO)C(C)C)S(=O)(=O)c1ccc(-c2ccccc2)cc1 | –
– | – | – | 54 | – | 0.3 | CC1(C)SCCN(S(=O)(=O)c2ccc(Oc3ccncc3)cc2)[C@H]1C(=O)NO [PRINOMASTAT] | –

— ChEMBL document CHEMBL1141995, “N-i-Propoxy-N-biphenylsulfonylaminobutylhydroxamic acids as potent and selective inhibitors of MMP-2 and MT1-MMP” (Bioorg Med Chem Lett, 2005)
